# Assay results reported in patent US20250361230A1, “LATS Inhibitors and Uses Thereof” (The USA, as Represented by the Secretary, Dept. of Heath …, priority 2022, published 2025).
# pIC50: −log10 of the molar value. Read-outs that look alike come from different tables or passages of the source.
# Legend:
# Assay type in all cases: biochemical
# LATS2 = biological target: T1, LATS2 (Homo sapiens, UniProt Q9NRM7); assay: RBC HotSpot kinase assay (33P-ATP, P81 filter-binding), LATS2; details: read-out: LATS2 IC50
# T1 sequence (Q9NRM7 1-1088): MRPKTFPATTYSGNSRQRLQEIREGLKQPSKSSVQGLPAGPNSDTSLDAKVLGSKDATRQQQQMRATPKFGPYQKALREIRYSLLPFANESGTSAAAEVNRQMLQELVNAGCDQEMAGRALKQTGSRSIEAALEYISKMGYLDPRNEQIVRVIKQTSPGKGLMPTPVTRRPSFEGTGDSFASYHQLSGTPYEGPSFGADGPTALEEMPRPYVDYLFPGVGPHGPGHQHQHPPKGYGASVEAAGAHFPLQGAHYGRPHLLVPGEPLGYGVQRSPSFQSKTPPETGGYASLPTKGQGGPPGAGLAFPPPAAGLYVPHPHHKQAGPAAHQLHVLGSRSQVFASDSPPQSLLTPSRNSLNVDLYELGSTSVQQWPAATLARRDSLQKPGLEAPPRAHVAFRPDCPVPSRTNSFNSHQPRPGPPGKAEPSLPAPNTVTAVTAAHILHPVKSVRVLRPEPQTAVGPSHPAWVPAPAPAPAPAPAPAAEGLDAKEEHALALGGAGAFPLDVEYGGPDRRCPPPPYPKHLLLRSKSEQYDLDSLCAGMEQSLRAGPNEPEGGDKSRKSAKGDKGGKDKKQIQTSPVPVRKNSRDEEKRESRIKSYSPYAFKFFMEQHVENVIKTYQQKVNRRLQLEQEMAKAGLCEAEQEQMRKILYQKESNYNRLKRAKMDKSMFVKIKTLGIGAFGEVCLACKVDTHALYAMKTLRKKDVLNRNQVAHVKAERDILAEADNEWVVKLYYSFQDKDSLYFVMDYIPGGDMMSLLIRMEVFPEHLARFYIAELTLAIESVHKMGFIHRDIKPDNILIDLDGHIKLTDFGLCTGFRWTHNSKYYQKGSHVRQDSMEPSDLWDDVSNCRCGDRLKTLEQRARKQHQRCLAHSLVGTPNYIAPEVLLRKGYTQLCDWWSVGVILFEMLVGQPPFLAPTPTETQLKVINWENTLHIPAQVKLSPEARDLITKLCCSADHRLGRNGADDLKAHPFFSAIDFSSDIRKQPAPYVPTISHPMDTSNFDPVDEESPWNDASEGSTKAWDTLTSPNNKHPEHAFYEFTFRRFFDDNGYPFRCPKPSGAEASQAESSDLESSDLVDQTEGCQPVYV
# How it was run: (§1)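 Substrate in fresh buffer receives cofactors, then kinase, then compound in DMSO for a 20 min room-temperature preincubation. Reactions start with 33P-ATP and run 2 h; phosphorylation is read by P81 filter binding, and IC50 comes from a 10-point curve.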
# AKT = AKT (Homo sapiens, UniProt P31749); assay: RBC HotSpot kinase assay (33P-ATP, P81 filter-binding), AKT; details: read-out: AKT IC50
# How it was run: as §1
# LATS1 = biological target: T2, LATS1 (Homo sapiens, UniProt O95835); assay: RBC HotSpot kinase assay (33P-ATP, P81 filter-binding), LATS1; details: read-out: LATS1 IC50
# T2 sequence (O95835 1-1130): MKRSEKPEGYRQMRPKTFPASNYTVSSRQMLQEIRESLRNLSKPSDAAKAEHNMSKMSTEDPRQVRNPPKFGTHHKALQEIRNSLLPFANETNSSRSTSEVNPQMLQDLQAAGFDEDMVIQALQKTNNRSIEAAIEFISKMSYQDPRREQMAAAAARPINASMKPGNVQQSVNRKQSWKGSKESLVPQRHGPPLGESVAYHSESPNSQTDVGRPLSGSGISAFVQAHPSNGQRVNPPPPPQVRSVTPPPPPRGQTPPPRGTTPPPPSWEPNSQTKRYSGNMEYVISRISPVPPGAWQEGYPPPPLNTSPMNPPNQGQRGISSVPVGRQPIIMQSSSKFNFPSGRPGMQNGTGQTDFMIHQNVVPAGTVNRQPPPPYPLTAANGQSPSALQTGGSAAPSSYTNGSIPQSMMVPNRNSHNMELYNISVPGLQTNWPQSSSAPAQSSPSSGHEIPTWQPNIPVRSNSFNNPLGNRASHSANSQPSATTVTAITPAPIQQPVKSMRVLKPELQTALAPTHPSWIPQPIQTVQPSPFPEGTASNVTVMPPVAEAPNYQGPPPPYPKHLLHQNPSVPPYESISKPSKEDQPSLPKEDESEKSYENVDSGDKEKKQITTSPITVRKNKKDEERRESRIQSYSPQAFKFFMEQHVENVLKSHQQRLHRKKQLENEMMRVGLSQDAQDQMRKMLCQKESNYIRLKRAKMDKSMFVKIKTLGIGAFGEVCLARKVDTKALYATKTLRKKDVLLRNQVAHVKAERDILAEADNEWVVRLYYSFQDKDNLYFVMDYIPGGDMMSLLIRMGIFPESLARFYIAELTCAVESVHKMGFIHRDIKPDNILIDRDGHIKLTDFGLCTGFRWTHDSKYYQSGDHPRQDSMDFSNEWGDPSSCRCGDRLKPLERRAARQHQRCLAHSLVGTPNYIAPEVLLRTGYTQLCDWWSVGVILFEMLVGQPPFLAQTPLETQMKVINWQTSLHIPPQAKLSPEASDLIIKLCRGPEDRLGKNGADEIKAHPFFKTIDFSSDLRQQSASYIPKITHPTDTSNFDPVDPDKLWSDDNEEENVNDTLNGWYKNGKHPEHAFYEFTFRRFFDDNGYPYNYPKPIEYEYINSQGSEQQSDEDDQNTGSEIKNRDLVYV
# How it was run: as §1
# [1] = Table 28, biochemical kinase assay
# [2] = Table 32, biochemical kinase assay
# AKT, sequence (P31749 whole entry): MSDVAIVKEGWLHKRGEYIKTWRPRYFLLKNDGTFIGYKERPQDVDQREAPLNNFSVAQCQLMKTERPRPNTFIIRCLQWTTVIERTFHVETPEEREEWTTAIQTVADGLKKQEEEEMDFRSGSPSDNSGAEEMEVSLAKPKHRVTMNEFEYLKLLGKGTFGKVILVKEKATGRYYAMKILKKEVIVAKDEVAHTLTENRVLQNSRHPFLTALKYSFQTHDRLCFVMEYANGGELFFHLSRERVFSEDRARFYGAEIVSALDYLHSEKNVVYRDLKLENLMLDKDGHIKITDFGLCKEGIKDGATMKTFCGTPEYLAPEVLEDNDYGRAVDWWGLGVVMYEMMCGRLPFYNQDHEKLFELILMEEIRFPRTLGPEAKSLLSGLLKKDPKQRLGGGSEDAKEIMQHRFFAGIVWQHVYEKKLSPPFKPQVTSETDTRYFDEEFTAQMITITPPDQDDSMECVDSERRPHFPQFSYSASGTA
pIC50 (LATS2; [1]),pIC50 (AKT; [1]),pIC50 (LATS1; [1]),SMILES,other results
8.24,6.43,8.24,"Cc1cc(-c2ccnc3[nH]cc(F)c23)ccc1[C@@]1(O)[C@H](C)CN(C2COC2)C[C@@H]1C [Compound 24, (3S,4s,5R)-4-(4-(3-fluoro-1H-pyrrolo[2,3-b]pyridin-4-yl)-2-methylphenyl)-3,5-dimethyl-1-(oxetan-3-yl)piperidin-4-ol]",
7.90,6.83,7.80,"C[C@@H]1CNC[C@H](C)[C@@]1(O)c1ccc(-c2ccnc3[nH]cc(F)c23)cc1 [Compound 2, (3R,4s,5S)-4-(4-(3-fluoro-1H-pyrrolo[2,3-b]pyridin-4-yl)phenyl)-3,5-dimethylpiperidin-4-ol]",
6.57,5.38,7.21,"C[C@@H]1CN(C)C[C@H](C)[C@@]1(O)c1ccc(-c2ccnc3[nH]cc(F)c23)nc1 [Compound 41, (3R,4s,5S)-4-(6-(3-fluoro-1H-pyrrolo[2,3-b]pyridin-4-yl)pyridin-3-yl)-1,3,5-trimethylpiperidin-4-ol]",
5.85,7.89,7.56,"COC(=O)c1c[nH]c2nccc(-c3ccc(CN)cc3)c12 [Compound 223, methyl 4-(4-(aminomethyl)phenyl)-1H-pyrrolo[2,3-b]pyridine-3-carboxylate]",
7.61,6.67,7.71,"C[C@@H]1CN(C)C[C@H](C)[C@@]1(O)c1ccc(-c2ccnc3[nH]cc(F)c23)cc1 [Compound 39, (3R,4s,5S)-4-(4-(3-fluoro-1H-pyrrolo[2,3-b]pyridin-4-yl)phenyl)-1,3,5-trimethylpiperidin-4-ol]",
8.17,7.31,8.08,"Cc1cc(-c2ccnc3[nH]cc(F)c23)ccc1[C@@]1(O)[C@H](C)CN(C(=O)CN)C[C@@H]1C [Compound 60, 2-amino-1-((3R,4s,5S)-4-(4-(3-fluoro-1H-pyrrolo[2,3-b]pyridin-4-yl)-2-methylphenyl)-4-hydroxy-3,5-dimethylpiperidin-1-yl)ethan-1-one]",
7.79,5.21,8.54,"Cc1cc(-c2ccnc3[nH]cc(F)c23)ncc1[C@@]1(O)[C@H](C)CN(C2CCC2)C[C@@H]1C [Compound 48, (3R,4s,5S)-1-cyclobutyl-4-(6-(3-fluoro-1H-pyrrolo[2,3-b]pyridin-4-yl)-4-methylpyridin-3-yl)-3,5-dimethylpiperidin-4-ol]",
8.24,6.78,7.92,"NCc1ccc(-c2ccnc3[nH]cc(Cl)c23)cc1 [Compound 276, (4-(3-chloro-1H-pyrrolo[2,3-b]pyridin-4-yl)phenyl) methanamine]",
8.14,6.44,8.07,C[C@@H]1CNC[C@H](C)[C@@]1(O)c1c(F)cc(-c2ccnc3[nH]cc(F)c23)cc1F [Compound 13],

# Continued, compound first:
SMILES,pIC50 (LATS2; [1]),pIC50 (AKT; [1]),pIC50 (LATS1; [1]),other results
"Cc1cc(-c2ccnc3[nH]cc(F)c23)cc(F)c1[C@@]1(O)[C@H](C)CN(C2CCS(=O)(=O)CC2)C[C@@H]1C [Compound 57, 4-((3R,4s,5S)-4-(2-fluoro-4-(3-fluoro-1H-pyrrolo[2,3-b]pyridin-4-yl)-6-methylphenyl)-4-hydroxy-3,5-dimethylpiperidin-1-yl)tetrahydro-2H-thiopyran 1,1-dioxide]",8.28,6.43,8.36,
"NCC(O)(c1ccc(Cl)cc1)c1ccc(-c2ccnc3[nH]cc(Br)c23)nc1 (stereo not drawn) [Compound 1011, 2-amino-1-(6-(3-bromo-1H-pyrrolo[2,3-b]pyridin-4-yl)pyridin-3-yl)-1-(4-chlorophenyl)ethan-1-ol]",,,,pIC50 (LATS2; [2]): > 9.30; pIC50 (AKT; [2]): 9.00; pIC50 (LATS1; [2]): 9.05
"Fc1c[nH]c2nccc(-c3ccc(C4CCNCC4)cc3)c12 [Compound 169, 3-fluoro-4-(4-(piperidin-4-yl)phenyl)-1H-pyrrolo[2,3-b]pyridine]",7.85,5.93,7.82,
"Cc1cc(-c2ccnc3[nH]cc(F)c23)cc(F)c1[C@@]1(O)[C@H](C)CN(C(=O)[C@@H](CO)N(C)C)C[C@@H]1C [Compound 313, (R)-2-(dimethylamino)-1-((3S,4S,5R)-4-(2-fluoro-4-(3-fluoro-1H-pyrrolo[2,3-b]pyridin-4-yl)-6-methylphenyl)-4-hydroxy-3,5-dimethylpiperidin-1-yl)-3-hydroxypropan-1-one]",8.80,6.51,8.36,
"Cc1cc(-c2ccnc3[nH]cc(C#N)c23)cc(F)c1[C@@]1(O)[C@H](C)CNC[C@@H]1C [Compound 2024, 4-(3-fluoro-4-((3S,4s,5R)-4-hydroxy-3,5-dimethylpiperidin-4-yl)-5-methylphenyl)-1H-pyrrolo[2,3-b]pyridine-3-carbonitrile]",,,,pIC50 (LATS2; biochemical kinase inhibition): 8.38; pIC50 (AKT; biochemical kinase inhibition): 6.48; pIC50 (LATS1; biochemical kinase inhibition): 8.18
"NCc1ccc(-c2ccnc3[nH]ccc23)cc1C(F)(F)F [Compound 284, (4-(1H-pyrrolo[2,3-b]pyridin-4-yl)-2-(trifluoromethyl)phenyl) methanamine]",7.35,5.94,8.00,
"Cc1cc(-c2ccnc3[nH]cc(C#N)c23)cc(F)c1[C@@]1(O)[C@H](C)CN(C(=O)C(N)C(F)(F)F)C[C@@H]1C (stereo partly drawn) [Compound 2017, 4-(4-((3S,4s,5R)-1-(2-amino-3,3,3-trifluoropropanoyl)-4-hydroxy-3,5-dimethylpiperidin-4-yl)-3-fluoro-5-methylphenyl)-1H-pyrrolo[2,3-b]pyridine-3-carbonitrile]",,,,pIC50 (LATS2; biochemical kinase inhibition): 8.16; pIC50 (AKT; biochemical kinase inhibition): 5.69; pIC50 (LATS1; biochemical kinase inhibition): 8.09
"Cc1cc(-c2ccnc3[nH]cc(F)c23)cc(F)c1[C@@]1(O)[C@H](C)CN(C)C[C@@H]1C [Compound 304, (3S,4s,5R)-4-(2-fluoro-4-(3-fluoro-1H-pyrrolo[2,3-b]pyridin-4-yl)-6-methylphenyl)-1,3,5-trimethylpiperidin-4-ol]",8.40,6.57,8.29,
"Cc1cc(-c2ccnc3[nH]ccc23)ccc1C1CCNCC1 [Compound 177, 4-(3-methyl-4-(piperidin-4-yl)phenyl)-1H-pyrrolo[2,3-b]pyridine]",7.85,6.16,7.96,
